In data set [1] the test system is Plasmodium falciparum strain Pf3D7. Put plainly: In vitro antiplasmodial assay (pLDH assay). Conditions: read-out: IC50 Pf3D7.
Data set [2] can be described thus: Cytotoxicity assay (resazurin). The data set is classed as cell-based. Conditions: human, compounds and combinations, HeLa cells, read-out: % Cell Viability ± sd Cytotoxicity. The method, then: Human cervix adenocarcinoma cells (HeLa cells) were used to check the toxicity of the crude extract and compounds and their combinations as described by Keusch et al. (1972). Stocks solutions were prepared in DMSO at a concentration of 50 μg/mL for the extracts and 20 μM for compounds, and combinations. To assess the overt cytotoxicity, samples were placed in 96-well plates containing cells for 48 h. The numbers of cells surviving drug treatment were determined using the resazurin based reagent and reading resorufin fluorescence in a Spectramax M3 microplate reader. Results were expressed as % viability-the resorufin fluorescence in compound-treated wells relative to untreated controls. Compounds were tested in duplicate and standard deviations (SD) derived. […] (which induces cell apoptosis) was used as the positive control.

Data set [3] concerns Trypanosoma brucei brucei. Put plainly: In vitro antitrypanosomal assay (resazurin viability). The note with it: for antitrypanosomal activity against Tb brucei (in words): in vitro; for IC50: Trypanosoma brucei. (Alamar Blue is a resazurin reagent that responds to reducing activity.)
Setting [4] is: read-out: IC50 Tb brucei, compounds, values given in µg/mL in the text.

Like-named read-outs stand apart in the source and are kept apart here.

As for `CCN(CC)CCCC(C)Nc1ccnc2cc(Cl)ccc12` (stereo not drawn) [Chloroquine], the IC50 in data set [1] turned out to be 0.034 µM.
Usually viability stands for a read-out of living cells in per cent, often relative to untreated cells. Consider `CCCC/C=C\CCCCc1ccccc1` [Compound 3, (5Z) 1-phenyldec-5-ene], for which, in data set [2], the viability at 48 h, 20 µM (stock) was 50.3 ± 8.9%.
Same read-out and setting: next, `O=C(O)CCCCCCCCCCCCCCc1ccccc1` [Compound 5, 15-phenylpentadecanoic acid]: 76.6 ± 4.1%.
On to `CCCCCCCCC1C2C=CC3C(C(=O)O)C=CC4CC1C2C43` (stereo not drawn) [Compound 11, beilschmiedic acid E], for which the “antitrypanosomal activity against Tb brucei (in words)” value in data set [3] was “inactive”. Also, in data set [2], the viability at 48 h, 20 µM (stock) came to 100 ± 5.8%.
On to `CCCCCCCCC1C2C=CC3C(CO)C=CC4CC1C2C43` (stereo not drawn) [Compound 11a, beilschmiedol A], for which the “antitrypanosomal activity against Tb brucei (in words)” value in data set [3] is “moderate activity”. In addition, the viability at 48 h, 20 µM (stock) in data set [2] was 52.6 ± 1.8%.
Consider `CCCCCCCC[C@@H]1[C@H]2C=C[C@H]3C(C=O)=CC[C@@H]4C[C@@H]1[C@@H]2[C@H]43` [Compound 11b, beilschmiedal], for which the IC50 is 8.3 µg/mL in data set [3] (setting [4]) and 31.4 µM in data set [1]. In addition, the viability at 48 h, 20 µM (stock) in data set [2] was found to be 79.6 ± 17.1%.
Regarding `CCCCCCCC[C@@H]1[C@H]2C=C[C@H]3C(/C=N/NC(N)=S)=CC[C@@H]4C[C@@H]1[C@@H]2[C@H]43` [Compound 11c, beilschmiecarbazone], the viability at 48 h, 20 µM (stock) in data set [2] was found to be 100 ± 2.8%.
`CCCCCCCCC1C2C=CC3C(COC(=O)c4cc(OC)c(OC)c(OC)c4)C=CC4CC1C2C43` (stereo not drawn) [Compound 11d, beilschmiegallate]: in data set [2], the viability at 48 h, 20 µM (stock) is 100 ± 3.4%.
For `O=C(O)C[C@@H]1[C@H]2C=C[C@H]3C(c4ccc5c(c4)OCO5)=CC[C@@H]4C[C@@H]1[C@@H]2[C@H]43` [Compound 12, methylenedioxyendiandric acid A], the viability at 48 h, 20 µM (stock) in data set [2] is 100 ± 10.8%.
For `CC[C@H](CC[C@@H](C)[C@H]1CC[C@H]2[C@@H]3CC=C4C[C@@H](O)CC[C@]4(C)[C@H]3CC[C@]12C)C(C)C` [Compound 13, β-sitosterol], the IC50 in data set [3] (48 h, read-out: IC50 Tb Brucei, isolated compounds, mixtures and drug standard, dose-response, for 6 + 7 IC50 maximum calculated with the constituent of lowest molecular mass) is 9.5 µM.
Regarding `N=C(N)c1ccc(OCCCCCOc2ccc(C(=N)N)cc2)cc1` [Pentamidine, reference compound], in data set [3] (setting [4]), the IC50 was approximately 0.01 µg/mL.
